In patent US11884652B2, “Tetrazole derivatives as TRPA1 inhibitors” (Boehringer Ingelheim International GmbH, priority 2020, dated 2024):

What was measured:
human TRPA1 ion channel = target: T1, human TRPA1 ion channel (Homo sapiens, UniProt O75762); experiment: Assay A: TRPA1 assay (FLIPR, AITC-induced calcium, HEK293 cells); assay type: cell-based; details: read-out: hTRPA1 IC50
T1 construct: host or cells: HEK293
Experimental: A human HEK293 cell line over-expressing the human TRPA1 ion channel (Perkin Elmer, Product No. AX-004-PCL) is used as a test system for compound efficacy and potency. Compound activity is determined by measuring the effect of compounds on intracellular calcium concentration induced by AITC (Allylisothiocyanat) agonism in a FLIPRtetra system (Molecular Devices).
The cells are obtained as frozen cells in cryo-vials and stored until use at −150° C. Cells are grown in culture medium (MEM/EBSS medium with 10% FCS and 0.4 mg/ML Geneticin). […] For sub-culturing cells are detached from flasks by Versene. At the day before the assay, cells are detached, washed twice with medium (MEM/EBSS medium with 10% FCS) and 20000 cells in 20 μl/well are seeded to Poly D-Lysin biocoated 384-well plates (black, clear bottom, Cat. 356697) from Corning. Plates are incubated for 24 hours at 37° C./5% CO2 before use in the assay.
The test compounds are dissolved in 100% DMSO at a concentration of 10 mM and in a first step diluted in DMSO to a concentration of 5 mM, followed by serial dilution steps in 100% DMSO. Dilution factor and number of dilution steps may vary according to needs. Typically 8 different concentrations by 1:5 dilutions are prepared, further intermediate dilutions (1:20) of the substances are carried out with HBSS/HEPES buffer (1×HEPES, Cat. 14065 from Gibco, 20 mM HEPES, Cat. 83264 from SIGMA, 0.1% BSA Cat. 11926 from Invitrogen, pH 7.4
At the assay day cells are washed 3× with assay puffer, 20 μL buffer remaining in the wells after washing. 10 μL Ca6 kit (Cat. R8191 MolecularDevices) loading buffer in HBSS/HEPES is added to the cells and the plates are incubated with lid for 120 minutes at 37°/5% CO2. 10 μL of compound or controls in HBSS/HEPES buffer/5% DMSO from the intermediate dilution plate are carefully added to the wells. […] Finally 10 μL of the agonist AITC 50 μM dissolved in HBSS/HEPES buffer/0.05% DMSO (final concentration 10 μM) is added to the wells followed by an additional read on the FLIPRtetra device for 10 minutes. The area under the signal curve (AUC) after AITC addition is used for IC50/% inhibition calculations
Data Evaluation and Calculation:
Each assay microtiter plate contains wells with vehicle (1% DMSO) controls instead of compound as controls for AITC induced luminescence (100% CTL; high controls) and wells with vehicle controls without AITC as controls for non-specific changes in luminescence (0% CTL; low controls).
The analysis of the data is performed by the calculation of the area under signal curve of the individual wells. Based on this values the % value for the measurement of each substance concentration is calculated (AUC(sample)−AUC(low))*100/(AUC(high)−AUC(low)) using MegaLab software (in house development). The IC50 values are calculated from the % control values using MegaLab software. Calculation: [y=(ad)/(1+(x/c)^b)+d], a=low value, d=high value; x=conc M; c=IC50 M; b=hill; y=% ctrl

[1] = Assay B: Microsomal clearance; assay type: in vitro ADME, human; details: pooled liver microsomes 1 mg/ml, 1 μM compound, NADPH, 37° C.; clearance as % of hepatic blood flow
Experimental: Assay B: Microsomal Clearance:
The metabolic degradation of the test compound is assayed at 37° C. with pooled liver microsomes. The final incubation volume of 100 μl per time point contains TRIS buffer pH 7.6 at RT (0.1 M), magnesium chloride (5 mM), microsomal protein (1 mg/ml) and the test compound at a final concentration of 1 μM.
Following a short preincubation period at 37° C., the reactions are initiated by addition of beta-nicotinamide adenine dinucleotide phosphate, reduced form (NADPH, 1 mM) and terminated by transferring an aliquot into solvent after different time points (0, 5, 15, 30, 60 min). Additionally, the NADPH-independent degradation is monitored in incubations without NADPH, terminated at the last time point. The [%] remaining test compound after NADPH independent incubation is reflected by the parameter c(control) (metabolic stability). The quenched incubations are pelleted by centrifugation (10000 g, 5 min).
An aliquot of the supernatant is assayed by LC-MS/MS for the amount of parent compound. The half-life (t½ INVITRO) is determined by the slope of the semilogarithmic plot of the concentration-time profile.
The intrinsic clearance (CL_[…]) is calculated by considering the amount of protein in the incubation: CL_[…] [μl/min/mg protein]=(Ln 2/(half-life [min]*protein content [mg/ml]))*1000 CL_[…]_INVIVO [ml/min/kg]=(CL_[…] [μL/min/mg protein]×MPPGL [mg protein/g liver]×liver factor [g/kg bodyweight])/1000 Qh[%]=CL[ml/min/kg]/hepatic blood flow [ml/min/kg])
(§1) Hepatocellularity, human: 120×10e6 cells/g liver
(§2) Liver factor, human: 25.7 g/kg bodyweight
(§3) Blood flow, human: 21 ml/(min×kg)

[2] = Assay C: Hepatocyte clearance; assay type: in vitro ADME, human; details: hepatocyte suspension, 1 μM compound, 6 h; predicted clearance as % of hepatic blood flow
Experimental: Assay C: Hepatocyte Clearance
The metabolic degradation of the test compound is assayed in a hepatocyte suspension. Hepatocytes (cryopreserved) are incubated in Dulbecco's modified eagle medium (supplemented with 3.5 μg glucagon/500 mL, 2.5 mg insulin/500 mL and 3.75 mg/500 mL hydrocortison) containing 5% or 50% species serum.
The cells are incubated for six hours (incubator, orbital shaker) and samples ([…]) are taken at 0, 0.5, 1, 2, 4 and 6 hours. Samples are transferred into acetonitrile and pelleted by centrifugation (5 min). The supernatant is transferred to a new 96-deepwell plate, evaporated under nitrogen and resuspended.
Decline of Parent Compound is Analyzed by HPLC-MS/MS
CLint is calculated as follows CL_[…]=Dose/AUC=(C0/CD)/(AUD+clast/k)×1000/60. C0: initial concentration in the incubation [μM], CD: cell density of vital cells [10e6 cells/mL], AUD: area under the data [μM×h], clast: concentration of last data point [μM], k: slope of the regression line for parent decline [h−1].
The calculated in vitro hepatic intrinsic clearance can be scaled up to the intrinsic in vivo hepatic Clearance and used to predict hepatic in vivo blood clearance (CL) by the use of a liver model (well stirred model). CL_[…]_INVIVO [ml/min/kg]=(CL_[…] [μL/min/10e6 cells]×hepatocellularity [10e6 cells/g liver]×liver factor [g/kg bodyweight])/1000 CL[ml/min/kg]=CL_[…]_INVIVO [ml/min/kg]×hepatic blood flow [ml/min/kg]/(CL_[…]_INVIVO [ml/min/kg]+hepatic blood flow [ml/min/kg]) Qh[%]=CL[ml/min/kg]/hepatic blood flow [ml/min/kg])
as §1, §2, §3

T1 sequence (O75762 whole entry): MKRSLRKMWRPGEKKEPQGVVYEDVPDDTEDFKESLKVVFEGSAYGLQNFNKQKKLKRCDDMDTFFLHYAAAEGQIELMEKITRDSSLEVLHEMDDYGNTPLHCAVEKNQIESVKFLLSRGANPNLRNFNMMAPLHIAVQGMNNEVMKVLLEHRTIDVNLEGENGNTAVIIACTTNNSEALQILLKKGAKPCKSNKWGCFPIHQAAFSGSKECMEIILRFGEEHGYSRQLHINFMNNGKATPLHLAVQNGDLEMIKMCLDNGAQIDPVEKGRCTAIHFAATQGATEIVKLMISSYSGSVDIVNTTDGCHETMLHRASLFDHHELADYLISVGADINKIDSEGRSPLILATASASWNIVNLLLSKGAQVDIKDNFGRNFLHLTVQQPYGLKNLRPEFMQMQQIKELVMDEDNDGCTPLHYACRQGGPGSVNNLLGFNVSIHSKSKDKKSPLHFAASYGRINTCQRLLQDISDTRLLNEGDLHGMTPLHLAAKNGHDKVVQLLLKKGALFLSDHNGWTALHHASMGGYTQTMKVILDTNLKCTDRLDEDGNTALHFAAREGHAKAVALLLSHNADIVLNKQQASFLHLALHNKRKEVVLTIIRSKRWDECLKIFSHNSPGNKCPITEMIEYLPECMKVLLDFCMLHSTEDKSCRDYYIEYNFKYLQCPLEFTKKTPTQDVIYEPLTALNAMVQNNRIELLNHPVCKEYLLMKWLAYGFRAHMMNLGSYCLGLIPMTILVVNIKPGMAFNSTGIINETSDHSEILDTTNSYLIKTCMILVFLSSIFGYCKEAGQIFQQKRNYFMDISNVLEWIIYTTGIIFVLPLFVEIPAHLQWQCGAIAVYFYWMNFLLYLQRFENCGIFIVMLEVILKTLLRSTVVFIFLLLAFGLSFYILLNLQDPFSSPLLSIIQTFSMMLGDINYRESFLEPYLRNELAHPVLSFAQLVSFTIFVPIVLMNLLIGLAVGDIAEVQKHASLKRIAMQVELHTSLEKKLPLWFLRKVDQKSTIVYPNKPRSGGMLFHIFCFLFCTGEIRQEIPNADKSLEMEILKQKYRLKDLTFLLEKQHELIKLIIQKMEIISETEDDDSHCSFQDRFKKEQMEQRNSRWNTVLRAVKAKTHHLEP

Row | Compound | IC50 (human TRPA1 ion channel) [µM] | human LM [% Qh] [1] [% Qh] | human Hepatocytes [% Qh] [2] [% Qh]
1 | COc1ccc([C@@H](O)Cn2nnc(Cn3cc(C(N)=O)c(=O)n(C)c3=O)n2)cc1 [Example 16] | 0.16 | <23 | <4
2 | CC(C)Cn1c(=O)c(C(N)=O)cn(Cc2nnn(C[C@H](O)c3ccc(Cl)cc3)n2)c1=O [Example 17] | 0.213 | 42 | 49
3 | NC(=O)c1cn(Cc2nnn(C[C@H](O)c3ccc(Cl)cc3)n2)c(=O)n(C2CCC2)c1=O [Example 18] | 0.033 | 38 | 39
4 | CCn1c(=O)c(C(N)=O)cn(Cc2nnn(C[C@H](O)c3ccc(Cl)cc3)n2)c1=O [Example 19] | 0.062 | <23 | 5
5 | NC(=O)c1cn(Cc2nnn(C[C@H](O)c3ccc(Cl)cc3)n2)c(=O)n(CC2CC2)c1=O [Example 20] | 0.064 | <23 | 15
6 | COCCn1c(=O)c(C(N)=O)cn(Cc2nnn(C[C@H](O)c3ccc(Cl)cc3)n2)c1=O [Example 21] | 0.258 | <23 | 15
7 | COCCNC(=O)c1cn(Cc2nnn(C[C@H](O)c3ccc(Cl)cc3)n2)c(=O)n(C)c1=O [Example 22, 1-({2-[(2R)-2-(4-chlorophenyl)-2-hydroxyethyl]-2H-1,2,3,4-tetrazol-5-yl}methyl)-N-(2-methoxyethyl)-3-methyl-2,4-dioxo-1,2,3,4-tetrahydropyrimidine-5-carboxamide] | 0.023 | <23 | 25
8 | Cn1c(=O)c(C(=O)NCC(F)F)cn(Cc2nnn(C[C@H](O)c3ccc(Cl)cc3)n2)c1=O [Example 23] | 0.039 | <23 | 15
9 | Cn1c(=O)c(C(=O)NCCN2CCOCC2)cn(Cc2nnn(C[C@H](O)c3ccc(Cl)cc3)n2)c1=O [Example 24] | 0.039 | 38 | 28
10 | CN1CCOCC1CNC(=O)c1cn(Cc2nnn(C[C@H](O)c3ccc(Cl)cc3)n2)c(=O)n(C)c1=O (stereo partly drawn) [Example 25] | 0.043 | 55 | 42
11 | Cn1ccnc1CNC(=O)c1cn(Cc2nnn(C[C@H](O)c3ccc(Cl)cc3)n2)c(=O)n(C)c1=O [Example 26] | 0.1 | 52 | 21
12 | CNC(=O)c1cn(Cc2nnn(C[C@H](O)c3ccc(Cl)cc3)n2)c(=O)n(C)c1=O [Example 27] | 0.14 | <23 | 17
13 | Cn1c(=O)c(C(=O)NCCS(C)(=O)=O)cn(Cc2nnn(C[C@H](O)c3ccc(Cl)cc3)n2)c1=O [Example 28] | 0.186 | <23 | <4
14 | Cn1c(=O)c(C(=O)NCCn2ccnc2)cn(Cc2nnn(C[C@H](O)c3ccc(Cl)cc3)n2)c1=O [Example 29] | 0.229 | 53 | 27
15 | Cn1c(=O)c(C(=O)NCCOC(F)(F)F)cn(Cc2nnn(C[C@H](O)c3ccc(Cl)cc3)n2)c1=O [Example 30] | 0.044 | 28 | 9
16 | Cn1c(=O)c(C(=O)NCC(F)(F)F)cn(Cc2nnn(C[C@H](O)c3ccc(Cl)cc3)n2)c1=O [Example 31] | 0.068 | <23 | 4
17 | Cn1c(=O)c(C(=O)NCC2CC2)cn(Cc2nnn(C[C@H](O)c3ccc(Cl)cc3)n2)c1=O [Example 32] | 0.092 | 52 | 45
18 | Cn1c(=O)c(C(=O)NCCF)cn(Cc2nnn(C[C@H](O)c3ccc(Cl)cc3)n2)c1=O [Example 33] | 0.116 | 57 | 28
19 | CCNC(=O)c1cn(Cc2nnn(C[C@H](O)c3ccc(Cl)cc3)n2)c(=O)n(C)c1=O [Example 34] | 0.297 | 43 | 44
20 | Cn1c(=O)c(C(=O)NCCn2cccn2)cn(Cc2nnn(C[C@H](O)c3ccc(Cl)cc3)n2)c1=O [Example 35] | 0.033 | <23 | 19
